Measurements as given in patent US9657307B2, “Herbicide resistance gene and use thereof” (HANGZHOU RUIFENG BIOTECHNOLOGY LIMITED INC., priority 2010, dated 2017).

Experiments:
[1] = test system: transformation line N-Z1-At6; test: Herbicide and herbicide mixture resistance of transformation line N-Z1-At6; assay type: in vivo, Arabidopsis thaliana; conditions: sprayed during the 4th-6th leaf stage
Excerpt: The resistance capability of N-Z1-At6 to other herbicides was further tested. Atrazine (90% water dispersible granule, Syngenta), Dicamba (48% aqueous formulation, Syngenta), flumiclorac-pentyl (10% emulsifiable concentrate, Sumitomo Chemical Corporation), bentazon, penoxsulam, bensulfuron and tribenuron are respectively sprayed during the 4th-6th leaf stage.
The transformation line N-Z1-At6 was further tested for the resistance to herbicide mixture.

[2] = test system: untransformed Arabidopsis thaliana seeds; test: Germination and growth on glyphosate medium; assay type: in vivo; conditions: growth medium containing 0.5 mM glyphosate
Protocol: The seeds obtained from Arabidopsis thaliana infected by Agrobacterium were allowed to germinate and grow in Arabidopsis thaliana growth medium containing 0.5 mM glyphosate. […] However, the seeds that introduced with T-DNA can grow and develop, followed by flowering and harvesting seeds. A total of 35 individual glyphosate-resistant seedlings (T0 generation) were obtained, and the seeds thereof were harvested.

Cynodon dactylon = test: Herbicide spray resistance determination of Cynodon dactylon; assay type: in vivo; conditions: observed after 10 days
Excerpt: (§1) Cynodon dactylon is a common weed as well as a turfgrass.

[3] = test system: control weeds including green bristlegrass, wild oats, Amaranthus retroflexus, humulus, purslane, Monochoria vaginalis, piemarker and nutgrass galingale herb; test: Herbicide spray on control weeds; assay type: in vivo; conditions: observed after 10 days
Excerpt: as §1

[4] = test system: transgenic rice strains obtained by pCam1300-N-Z1 vector transformation; test: Herbicide resistance of transgenic rice, pCam1300-N-Z1 vector; assay type: in vivo; conditions: after 10 days; for transgenic strains with slow growth / transgenic strains without any observable growth inhibition: of 10 strains; for death rate of transgenic strains: seedlings about 10 cm, 10 strains
Excerpt: The method for obtaining transgenic rice was implemented using existing technology (Lu Xiongbin, Gong zuxun, 1998, Life Science, 10: 125-131; Liu fan et al., 2003, Molecular Plant Breeding, 1:108-115). Ripe and plump “Xiushui 134” seeds were selected and deshelled, and the calli were induced and produced which would be used as transformation material. Agrobacterium containing target gene vectors pCam1300-N-Z1 and pCam1300-N-Z2 was taken and streaked onto a plate, and single colony was selected and inoculated to prepare Agrobacterium for transformation. The calli to be transformed were placed into Agrobacterium liquid (containing acetosyringone) with proper concentration, allowing the Agrobacterium to be conjugated to the surface of the calli, and then the calli were transferred to a coculture medium and cocultured for 2-3 days. The transformed calli were rinsed with aseptic water and transferred to a selective medium containing appropriate hygromycin, and cultured for screening for two months (subcultured one time during the period). The calli after being screened with good viability were transferred to a pre-differentiation medium and cultured for about 20 days, and then the pre-differentiated calli were transferred to a differential medium and irradiated with light for 14 hours for differentiation and sprouting. After 2-3 weeks, the regenerated plants having resistance were transferred to a rooting medium containing nicosulfuron (0.1 mg/L) for strengthening the seedling and growing roots, and then the regenerated plants were rinsed to remove agar and transferred into a greenhouse to be used as identification materials.
(§2) 10 different transgenic rice strains obtained by pCam1300-N-Z1 vector transformation and non-transgenic strains of the same variety “XiuShui 134” were selected and planted in a greenhouse (at a temperature of 15° C.-25° C.), and nicosulfuron (Yu Nongle, zhejiang Gold-Ox pesticides LTD) was sprayed at 6 mg/square meter when the seedlings have a height of about 10 cm.
(§3) 10 different transgenic rice strains obtained by pCam1300-N-Z1 vector transformation and non-transgenic strains of the same variety “XiuShui 134” were selected and planted in a greenhouse (at a temperature of 15° C.-25° C.), and mesotrione (10% mesotrione suspension, Syngenta) was sprayed at 15 mg/square meter when the seedlings have a height of about 10 cm.

[5] = test system: Non-transgenic recipient parent Arabidopsis thaliana; test: Herbicide spray on non-transgenic Arabidopsis thaliana; assay type: in vivo; conditions: 10 days after spraying
Protocol: (§4) Nicosulfuron resistance test: 10 plants for each line were sprayed with nicosulfuron (the dose is equal to 6 mg/square meter, the effective spraying concentration was 80 mg/L, and the product was Yu Nongle, Zhejiang Gold-Ox pesticides LTD). Non-transgenic recipient parent Arabidopsis thaliana was used as negative control. Their nicosulfuron resistance levels were evaluated 10 days after spraying nicosulfuron. […] All of the non-transgenic recipient parent Arabidopsis thaliana died.
(§5) Mesotrione resistance test: 10 plants for each line were sprayed with mesotrione (the dose is equal to 15 mg/square meter, the effective spraying concentration was 200 mg/L, and the product was 10% mesotrione suspension, Syngenta). Non-transgenic recipient parent Arabidopsis thaliana was used as negative control. Their mesotrione resistant levels were evaluated 10 days after spraying mesotrione. […] All of the non-transgenic recipient parent Arabidopsis thaliana died.
(§6) 2,4-D resistance test: 10 plants for each line were sprayed with 2,4-D (the dose was equal to 150 mg/square meter, the spraying concentration was 1.4 g/L, and the product was soluble powder of […], Haiyan boda fine chemical Co., Ltd). Non-transgenic recipient parent Arabidopsis thaliana was used as negative control. […] All of the non-transgenic recipient parent Arabidopsis thaliana died.

[6] = test system: transgenic Arabidopsis thaliana transformation lines (vector pCambia1300-35S/G10-35S/N-Z1); test: Herbicide resistance of transgenic Arabidopsis thaliana, pCambia1300-35S/G10-35S/N-Z1; assay type: in vivo; conditions: 10 days after spraying
Excerpt: A total of 35 individual transformation lines were obtained using vector pCambia1300-35S/G10-35S/N-Z1. The T1 generation seedlings (obtained after the germination of T0 generation seeds) were sprayed with glyphosate diluted at 1:200 (41% aqueous solution of glyphosate isopropylamine salt, Xin'an chemical company) to remove the isolated plants without introduction of glyphosate-resistant gene. The survived plants were subjected to herbicide resistance test after growing to 4th-6th leaf stages.
as §4, §5, §6

[7] = test system: non-transgenic strains of the same variety "XiuShui 134"; test: Herbicide spray on non-transgenic rice; assay type: in vivo; conditions: after 10 days
Protocol: as §2, §3
10 different transgenic rice strains obtained by pCam1300-N-Z2 vector transformation and non-transgenic strains of the same variety “XiuShui 134” were selected and planted in the greenhouse (at a temperature of 15° C.-25° C.), and nicosulfuron was sprayed at 6 mg/square meter when the seedlings have a height of about 10 cm.
10 different transgenic rice strains obtained by pCam1300-N-Z2 vector transformation and non-transgenic strains of the same variety “XiuShui 134” were selected and planted in the greenhouse (at a temperature of 15° C.-25° C.), and mesotrione was sprayed at 15 mg/square meter when the seedlings have a height of about 10 cm.

[8] = test system: transgenic rice strains obtained by pCam1300-N-Z2 vector transformation; test: Herbicide resistance of transgenic rice, pCam1300-N-Z2 vector; assay type: in vivo; conditions: after 10 days, 10 strains
Excerpt: The method for obtaining transgenic rice was implemented using existing technology (Lu Xiongbin, Gong zuxun, 1998, Life Science, 10: 125-131; Liu fan et al., 2003, Molecular Plant Breeding, 1:108-115). Ripe and plump “Xiushui 134” seeds were selected and deshelled, and the calli were induced and produced which would be used as transformation material. Agrobacterium containing target gene vectors pCam1300-N-Z1 and pCam1300-N-Z2 was taken and streaked onto a plate, and single colony was selected and inoculated to prepare Agrobacterium for transformation. The calli to be transformed were placed into Agrobacterium liquid (containing acetosyringone) with proper concentration, allowing the Agrobacterium to be conjugated to the surface of the calli, and then the calli were transferred to a coculture medium and cocultured for 2-3 days. The transformed calli were rinsed with aseptic water and transferred to a selective medium containing appropriate hygromycin, and cultured for screening for two months (subcultured one time during the period). The calli after being screened with good viability were transferred to a pre-differentiation medium and cultured for about 20 days, and then the pre-differentiated calli were transferred to a differential medium and irradiated with light for 14 hours for differentiation and sprouting. […]

[9] = mesotrione 15 mg/square meter (200 mg/L)
[10] = nicosulfuron 6 mg/square meter (80 mg/L), of 35 lines

CCNc1nc(Cl)nc(NC(C)C)n1 [Atrazine]
resistance level of N-Z1-At6 compared with non-transgenic parental plants [1]: obviously improved

COc1c(Cl)ccc(Cl)c1C(=O)O [Dicamba]
resistance level of N-Z1-At6 compared with non-transgenic parental plants [1]: obviously improved

COc1cc(OC)nc(NC(=O)NS(=O)(=O)Cc2ccccc2C(=O)O)n1 [bensulfuron]
resistance level of N-Z1-At6 compared with non-transgenic parental plants [1]: obviously improved

CC(C)N1C(=O)c2ccccc2NS1(=O)=O [bentazon]
resistance level of N-Z1-At6 compared with non-transgenic parental plants [1]: obviously improved

CCCCCOC(=O)COc1cc(N2C(=O)C3=C(CCCC3)C2=O)c(F)cc1Cl [flumiclorac-pentyl]
resistance level of N-Z1-At6 compared with non-transgenic parental plants [1]: obviously improved

O=C(O)CNCP(=O)(O)O [glyphosate]
growth of untransformed seeds after germination [2]: yellowed and died

CS(=O)(=O)c1ccc(C(=O)C2C(=O)CCCC2=O)c([N+](=O)[O-])c1 [mesotrione]
death of Cynodon dactylon (Cynodon dactylon; mesotrione 1000 mg/L sprayed): no death
death of control weeds ([3]; mesotrione 1000 mg/L sprayed): died due to the occurrence of whitening
transgenic strains with slow growth ([4]; mesotrione 15 mg/square meter): 7 strains
transgenic strains without any observable growth inhibition ([4]; mesotrione 15 mg/square meter): 3 strains
death rate of transgenic strains ([4]; mesotrione 15 mg/square meter): 0%
death of non-transgenic recipient parent [5, 9]: died
killed [6, 9]: 11 plants
whitening at the early stage, most recovered later [6, 9]: 18 plants
transformation lines with no obvious herbicide damage ([6]; mesotrione 15 mg/square meter (200 mg/L), of 35 lines): 6 lines
death of non-transgenic strains ([7]; mesotrione 15 mg/square meter): died
death of transgenic strains (N-Z2) ([8]; mesotrione 15 mg/square meter): died

COc1cc(OC)nc(NC(=O)NS(=O)(=O)c2ncccc2C(=O)N(C)C)n1 [nicosulfuron]
death of Cynodon dactylon (Cynodon dactylon; nicosulfuron 400 mg/L sprayed): no death
death of control weeds ([3]; nicosulfuron 400 mg/L sprayed): killed
transgenic strains with slow growth ([4]; nicosulfuron 6 mg/square meter): 2 strains
transgenic strains without any observable growth inhibition ([4]; nicosulfuron 6 mg/square meter): 8 strains
death rate of transgenic strains ([4]; nicosulfuron 6 mg/square meter): 0%
death of non-transgenic recipient parent ([5]; nicosulfuron 6 mg/square meter (80 mg/L)): died
lines killed [6, 10]: 6 lines
lines with different degrees of growth inhibition [6, 10]: 8 lines
transformation lines with no obvious herbicide damage [6, 10]: 21 lines
death of non-transgenic strains ([7]; nicosulfuron 6 mg/square meter): died
death of transgenic strains (N-Z2) ([8]; nicosulfuron 6 mg/square meter): died

COc1cnc(OC)n2nc(NS(=O)(=O)c3c(OCC(F)F)cccc3C(F)(F)F)nc12 [penoxsulam]
resistance level of N-Z1-At6 compared with non-transgenic parental plants [1]: obviously improved

COc1nc(C)nc(N(C)C(=O)NS(=O)(=O)c2ccccc2C(=O)O)n1 [tribenuron]
resistance level of N-Z1-At6 compared with non-transgenic parental plants [1]: obviously improved
